Key:
Format in all cases: biochemical
EPHB4 = biological target: T1, EPHB4 (Homo sapiens, UniProt P54760); test: Kinase inhibition assay (33P transfer), EPHB4; details: read-out: EPHB4-1
T1 construct: Kinases are expressed as either kinase domains or full length constructs; made in house
T1 sequence (P54760 16-987): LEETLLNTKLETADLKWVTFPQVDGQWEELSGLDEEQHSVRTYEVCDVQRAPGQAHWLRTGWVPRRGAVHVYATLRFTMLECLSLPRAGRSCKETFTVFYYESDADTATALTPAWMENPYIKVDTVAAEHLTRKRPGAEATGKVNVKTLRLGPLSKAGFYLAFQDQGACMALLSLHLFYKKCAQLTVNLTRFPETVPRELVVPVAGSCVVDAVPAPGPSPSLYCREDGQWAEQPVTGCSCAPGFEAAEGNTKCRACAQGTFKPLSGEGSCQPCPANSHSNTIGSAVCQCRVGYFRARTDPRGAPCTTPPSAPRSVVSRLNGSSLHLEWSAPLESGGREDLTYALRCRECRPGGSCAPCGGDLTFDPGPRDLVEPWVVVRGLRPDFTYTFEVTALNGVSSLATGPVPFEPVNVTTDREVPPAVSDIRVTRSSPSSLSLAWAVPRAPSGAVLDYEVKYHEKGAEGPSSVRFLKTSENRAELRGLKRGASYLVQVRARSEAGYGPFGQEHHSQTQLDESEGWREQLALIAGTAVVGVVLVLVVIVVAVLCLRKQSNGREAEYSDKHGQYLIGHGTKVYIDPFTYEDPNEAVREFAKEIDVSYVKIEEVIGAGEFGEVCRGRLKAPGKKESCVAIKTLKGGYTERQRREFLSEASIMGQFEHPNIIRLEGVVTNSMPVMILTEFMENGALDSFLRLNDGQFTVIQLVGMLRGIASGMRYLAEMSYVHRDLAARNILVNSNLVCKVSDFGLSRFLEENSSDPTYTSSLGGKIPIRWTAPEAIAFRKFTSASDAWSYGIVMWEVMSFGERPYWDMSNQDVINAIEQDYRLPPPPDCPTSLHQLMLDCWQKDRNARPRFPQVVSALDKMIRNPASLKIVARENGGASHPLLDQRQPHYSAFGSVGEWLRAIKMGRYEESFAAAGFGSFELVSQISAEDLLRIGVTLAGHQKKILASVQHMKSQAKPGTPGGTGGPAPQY

AKT = biological target: T2, AKT (Homo sapiens, UniProt Q9Y243); test: Kinase inhibition assay (33P transfer), AKT; details: Table 2, kinase inhibition class; read-out: AKT3-1
T2 construct: Kinases are expressed as either kinase domains or full length constructs; made in house
Summary of the method: (§1)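 Measured by scintillation: radiolabelled phosphate added by tagged recombinant kinases to poly(Glu,Tyr) 4:1 or poly(Arg,Ser) 3:1 attached to microtiter wells, counted once free label was washed away with 0.5% phosphoric acid.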

Kdr = biological target: T3, Kdr (Homo sapiens, UniProt P35968); test: Kinase inhibition assay (33P transfer), Kdr; details: Table 3; read-out: KDR-1
T3 construct: Kinases are expressed as either kinase domains or full length constructs; made in house
Summary of the method: as §1

Tek = biological target: T4, Tek (Homo sapiens, UniProt Q02763); test: Kinase inhibition assay (33P transfer), Tek; details: read-out: Tek-1
T4 construct: Kinases are expressed as either kinase domains or full length constructs; made in house
Summary of the method: (§2)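 IC50: inhibitor concentration lowering 33P incorporation into immobilised substrate by 50%. Label transferred from ATP to poly(Glu,Tyr) 4:1 or poly(Arg,Ser) 3:1 is measured after a 0.5% phosphoric acid wash by liquid scintillation.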

Lck = biological target: T5, Lck (Homo sapiens, UniProt P06239); test: Kinase inhibition assay (33P transfer), Lck; details: Table 3; read-out: Lck-1
T5 construct: Kinases are expressed as either kinase domains or full length constructs; made in house
Summary of the method: as §1

EGFR = biological target: T6, EGFR (Homo sapiens, UniProt P00533); test: Kinase inhibition assay (33P transfer), EGFR; details: Table 2, kinase inhibition class; read-out: EGFR-1
T6 construct: Kinases are expressed as either kinase domains or full length constructs; made in house
Summary of the method: as §2

c-Met = biological target: T7, c-Met (Homo sapiens, UniProt P08581); test: Kinase inhibition assay (33P transfer), c-Met; details: Table 2, kinase inhibition class; read-out: Met-1
T7 construct: Kinases are expressed as either kinase domains or full length constructs; made in house
Summary of the method: as §2

Itk = biological target: T8, Itk (Homo sapiens, UniProt Q08881); test: Kinase inhibition assay (33P transfer), Itk; details: Table 3; read-out: Itk-1
T8 construct: Kinases are expressed as either kinase domains or full length constructs; made in house
T8 sequence (Q08881 1-620): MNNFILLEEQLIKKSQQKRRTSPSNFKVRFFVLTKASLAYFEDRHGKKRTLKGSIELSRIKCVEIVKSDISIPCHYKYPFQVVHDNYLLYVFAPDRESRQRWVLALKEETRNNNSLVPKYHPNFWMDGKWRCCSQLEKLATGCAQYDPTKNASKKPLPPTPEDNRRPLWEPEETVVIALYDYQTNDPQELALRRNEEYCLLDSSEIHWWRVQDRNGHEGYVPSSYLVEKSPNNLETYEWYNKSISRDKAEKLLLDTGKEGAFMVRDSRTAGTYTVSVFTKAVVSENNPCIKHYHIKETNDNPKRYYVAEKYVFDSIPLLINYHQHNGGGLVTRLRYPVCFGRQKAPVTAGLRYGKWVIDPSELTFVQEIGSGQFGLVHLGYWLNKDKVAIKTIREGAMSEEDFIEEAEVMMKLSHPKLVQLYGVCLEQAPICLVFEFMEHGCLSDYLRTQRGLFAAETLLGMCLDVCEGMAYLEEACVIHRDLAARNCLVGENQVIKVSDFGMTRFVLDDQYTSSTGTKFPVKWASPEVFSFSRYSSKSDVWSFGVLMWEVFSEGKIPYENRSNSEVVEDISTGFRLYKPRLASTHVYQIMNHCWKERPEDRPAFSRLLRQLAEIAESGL
Summary of the method: as §2

IGFR-1 = biological target: T9, IGFR-1 (Homo sapiens, UniProt P08069); test: Kinase inhibition assay (33P transfer), IGFR-1; details: Table 2, kinase inhibition class
T9 construct: Kinases are expressed as either kinase domains or full length constructs; made in house

Zap-70 = biological target: T10, Zap-70 (Homo sapiens, UniProt P43403); test: Kinase inhibition assay (33P transfer), Zap-70; details: Table 3; read-out: Zap-1
T10 construct: Kinases are expressed as either kinase domains or full length constructs; made in house
T10 sequence (P43403 1-619): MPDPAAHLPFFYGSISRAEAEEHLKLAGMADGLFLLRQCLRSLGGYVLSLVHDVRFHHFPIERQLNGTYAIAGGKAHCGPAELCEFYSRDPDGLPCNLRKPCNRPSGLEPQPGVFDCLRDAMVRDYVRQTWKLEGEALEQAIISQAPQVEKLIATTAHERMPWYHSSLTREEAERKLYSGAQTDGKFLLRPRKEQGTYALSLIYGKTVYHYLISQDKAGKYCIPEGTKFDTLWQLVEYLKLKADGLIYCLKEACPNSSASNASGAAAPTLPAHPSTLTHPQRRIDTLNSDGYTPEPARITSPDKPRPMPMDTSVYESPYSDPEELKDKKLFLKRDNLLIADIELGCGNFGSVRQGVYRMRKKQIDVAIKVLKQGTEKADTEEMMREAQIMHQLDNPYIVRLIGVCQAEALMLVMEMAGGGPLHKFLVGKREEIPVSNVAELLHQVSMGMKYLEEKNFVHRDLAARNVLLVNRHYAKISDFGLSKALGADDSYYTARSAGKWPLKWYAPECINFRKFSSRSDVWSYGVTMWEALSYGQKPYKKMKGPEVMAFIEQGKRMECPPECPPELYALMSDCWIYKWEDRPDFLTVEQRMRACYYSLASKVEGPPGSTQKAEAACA
Summary of the method: as §1

T6 sequence (P00533 25-1210, species assumed): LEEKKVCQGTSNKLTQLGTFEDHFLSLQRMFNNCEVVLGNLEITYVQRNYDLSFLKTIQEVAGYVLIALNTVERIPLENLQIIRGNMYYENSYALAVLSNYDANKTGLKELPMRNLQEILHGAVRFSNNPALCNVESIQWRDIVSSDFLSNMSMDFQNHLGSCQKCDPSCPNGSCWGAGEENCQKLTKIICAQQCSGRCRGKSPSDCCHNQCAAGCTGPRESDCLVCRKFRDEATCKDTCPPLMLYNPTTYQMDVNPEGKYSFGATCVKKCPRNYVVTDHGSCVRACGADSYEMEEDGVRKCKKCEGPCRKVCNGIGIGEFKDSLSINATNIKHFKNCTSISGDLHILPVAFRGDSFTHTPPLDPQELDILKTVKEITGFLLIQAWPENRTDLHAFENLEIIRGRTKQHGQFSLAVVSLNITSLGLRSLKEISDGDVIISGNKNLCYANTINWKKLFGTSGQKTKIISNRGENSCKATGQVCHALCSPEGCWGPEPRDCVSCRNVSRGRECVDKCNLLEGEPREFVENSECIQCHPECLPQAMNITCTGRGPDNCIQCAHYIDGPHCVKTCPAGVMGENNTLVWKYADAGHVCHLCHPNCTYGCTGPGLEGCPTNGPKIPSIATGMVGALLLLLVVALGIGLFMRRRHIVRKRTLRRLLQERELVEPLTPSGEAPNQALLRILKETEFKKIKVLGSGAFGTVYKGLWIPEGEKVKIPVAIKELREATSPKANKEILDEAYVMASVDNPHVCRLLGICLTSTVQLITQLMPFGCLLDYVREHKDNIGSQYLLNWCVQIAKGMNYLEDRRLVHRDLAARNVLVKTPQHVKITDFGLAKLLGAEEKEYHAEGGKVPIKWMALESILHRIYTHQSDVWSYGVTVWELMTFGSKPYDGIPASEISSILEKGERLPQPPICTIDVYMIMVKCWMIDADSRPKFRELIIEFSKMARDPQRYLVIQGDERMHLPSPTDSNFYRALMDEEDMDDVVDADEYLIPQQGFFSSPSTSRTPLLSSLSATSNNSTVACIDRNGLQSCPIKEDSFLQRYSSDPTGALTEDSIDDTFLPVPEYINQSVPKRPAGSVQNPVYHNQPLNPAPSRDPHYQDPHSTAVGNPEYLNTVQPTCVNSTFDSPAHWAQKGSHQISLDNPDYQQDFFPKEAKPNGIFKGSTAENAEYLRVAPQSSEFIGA
T3 sequence (P35968 20-1356, species assumed): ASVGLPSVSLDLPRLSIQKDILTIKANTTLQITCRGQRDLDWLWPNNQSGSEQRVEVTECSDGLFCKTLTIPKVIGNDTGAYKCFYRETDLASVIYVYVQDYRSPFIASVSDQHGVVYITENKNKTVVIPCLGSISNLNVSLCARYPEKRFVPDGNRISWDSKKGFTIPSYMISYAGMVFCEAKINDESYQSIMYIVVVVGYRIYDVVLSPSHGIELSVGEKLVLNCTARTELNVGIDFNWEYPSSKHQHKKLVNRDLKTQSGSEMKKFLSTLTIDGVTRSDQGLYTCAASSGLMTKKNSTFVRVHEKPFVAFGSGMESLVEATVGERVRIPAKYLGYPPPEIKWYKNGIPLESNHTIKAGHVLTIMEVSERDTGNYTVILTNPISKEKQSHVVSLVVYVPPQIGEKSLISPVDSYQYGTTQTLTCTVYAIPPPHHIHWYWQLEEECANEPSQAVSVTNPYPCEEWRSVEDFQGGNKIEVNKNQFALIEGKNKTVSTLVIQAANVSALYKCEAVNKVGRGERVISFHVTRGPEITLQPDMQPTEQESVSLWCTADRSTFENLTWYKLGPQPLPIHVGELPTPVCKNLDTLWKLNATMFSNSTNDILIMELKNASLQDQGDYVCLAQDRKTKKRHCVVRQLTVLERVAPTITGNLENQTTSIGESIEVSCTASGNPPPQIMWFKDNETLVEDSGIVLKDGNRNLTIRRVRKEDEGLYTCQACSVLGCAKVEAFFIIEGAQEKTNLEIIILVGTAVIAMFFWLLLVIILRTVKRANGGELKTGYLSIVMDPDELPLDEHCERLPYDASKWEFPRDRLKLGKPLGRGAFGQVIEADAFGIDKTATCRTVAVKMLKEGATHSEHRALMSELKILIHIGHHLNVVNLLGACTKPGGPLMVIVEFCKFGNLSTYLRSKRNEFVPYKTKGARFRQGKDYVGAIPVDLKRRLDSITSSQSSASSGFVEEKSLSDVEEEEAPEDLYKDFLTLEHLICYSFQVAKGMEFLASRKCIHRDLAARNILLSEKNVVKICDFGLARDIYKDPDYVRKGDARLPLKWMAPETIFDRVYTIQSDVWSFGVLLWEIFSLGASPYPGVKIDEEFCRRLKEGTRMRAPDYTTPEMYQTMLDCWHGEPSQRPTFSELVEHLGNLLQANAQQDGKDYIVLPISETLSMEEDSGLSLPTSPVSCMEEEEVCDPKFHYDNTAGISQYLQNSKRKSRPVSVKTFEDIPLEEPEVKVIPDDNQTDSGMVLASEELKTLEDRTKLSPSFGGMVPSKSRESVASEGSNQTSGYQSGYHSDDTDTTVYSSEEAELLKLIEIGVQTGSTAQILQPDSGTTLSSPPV
T9 sequence (P08069 31-1367): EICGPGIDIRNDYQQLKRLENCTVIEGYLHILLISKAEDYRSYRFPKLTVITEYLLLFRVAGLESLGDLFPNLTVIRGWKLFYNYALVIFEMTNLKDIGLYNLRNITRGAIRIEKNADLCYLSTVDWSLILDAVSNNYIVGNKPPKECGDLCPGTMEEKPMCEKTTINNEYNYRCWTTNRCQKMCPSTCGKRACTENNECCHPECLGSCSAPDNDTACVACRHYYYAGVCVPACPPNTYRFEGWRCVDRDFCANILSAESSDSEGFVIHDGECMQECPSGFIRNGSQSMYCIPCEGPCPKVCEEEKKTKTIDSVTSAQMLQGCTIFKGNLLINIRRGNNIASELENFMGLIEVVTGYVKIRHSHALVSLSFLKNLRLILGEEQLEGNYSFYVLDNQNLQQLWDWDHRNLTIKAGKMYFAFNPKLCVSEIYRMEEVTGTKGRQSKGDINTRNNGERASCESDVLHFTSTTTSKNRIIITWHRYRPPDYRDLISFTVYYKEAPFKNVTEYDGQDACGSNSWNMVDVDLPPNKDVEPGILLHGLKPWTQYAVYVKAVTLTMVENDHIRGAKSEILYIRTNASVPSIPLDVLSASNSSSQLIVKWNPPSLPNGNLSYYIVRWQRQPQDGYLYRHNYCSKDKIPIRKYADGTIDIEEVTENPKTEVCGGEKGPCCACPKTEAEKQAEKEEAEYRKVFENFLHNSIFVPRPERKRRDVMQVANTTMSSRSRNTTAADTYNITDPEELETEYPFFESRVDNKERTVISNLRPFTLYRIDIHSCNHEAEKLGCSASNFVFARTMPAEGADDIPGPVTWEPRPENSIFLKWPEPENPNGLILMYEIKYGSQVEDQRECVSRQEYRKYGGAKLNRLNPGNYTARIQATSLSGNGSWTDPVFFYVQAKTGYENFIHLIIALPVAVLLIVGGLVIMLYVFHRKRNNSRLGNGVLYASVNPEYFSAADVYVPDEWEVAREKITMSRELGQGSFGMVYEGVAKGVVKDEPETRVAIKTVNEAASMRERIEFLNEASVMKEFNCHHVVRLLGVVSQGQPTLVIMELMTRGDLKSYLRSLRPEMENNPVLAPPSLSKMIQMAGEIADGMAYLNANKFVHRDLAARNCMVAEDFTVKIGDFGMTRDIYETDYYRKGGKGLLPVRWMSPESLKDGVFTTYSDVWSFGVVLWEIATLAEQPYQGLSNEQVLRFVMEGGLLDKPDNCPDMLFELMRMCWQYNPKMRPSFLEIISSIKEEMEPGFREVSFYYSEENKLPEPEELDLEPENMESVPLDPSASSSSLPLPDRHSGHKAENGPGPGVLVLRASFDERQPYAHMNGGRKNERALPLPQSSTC
T4 sequence (Q02763 23-1124, species assumed): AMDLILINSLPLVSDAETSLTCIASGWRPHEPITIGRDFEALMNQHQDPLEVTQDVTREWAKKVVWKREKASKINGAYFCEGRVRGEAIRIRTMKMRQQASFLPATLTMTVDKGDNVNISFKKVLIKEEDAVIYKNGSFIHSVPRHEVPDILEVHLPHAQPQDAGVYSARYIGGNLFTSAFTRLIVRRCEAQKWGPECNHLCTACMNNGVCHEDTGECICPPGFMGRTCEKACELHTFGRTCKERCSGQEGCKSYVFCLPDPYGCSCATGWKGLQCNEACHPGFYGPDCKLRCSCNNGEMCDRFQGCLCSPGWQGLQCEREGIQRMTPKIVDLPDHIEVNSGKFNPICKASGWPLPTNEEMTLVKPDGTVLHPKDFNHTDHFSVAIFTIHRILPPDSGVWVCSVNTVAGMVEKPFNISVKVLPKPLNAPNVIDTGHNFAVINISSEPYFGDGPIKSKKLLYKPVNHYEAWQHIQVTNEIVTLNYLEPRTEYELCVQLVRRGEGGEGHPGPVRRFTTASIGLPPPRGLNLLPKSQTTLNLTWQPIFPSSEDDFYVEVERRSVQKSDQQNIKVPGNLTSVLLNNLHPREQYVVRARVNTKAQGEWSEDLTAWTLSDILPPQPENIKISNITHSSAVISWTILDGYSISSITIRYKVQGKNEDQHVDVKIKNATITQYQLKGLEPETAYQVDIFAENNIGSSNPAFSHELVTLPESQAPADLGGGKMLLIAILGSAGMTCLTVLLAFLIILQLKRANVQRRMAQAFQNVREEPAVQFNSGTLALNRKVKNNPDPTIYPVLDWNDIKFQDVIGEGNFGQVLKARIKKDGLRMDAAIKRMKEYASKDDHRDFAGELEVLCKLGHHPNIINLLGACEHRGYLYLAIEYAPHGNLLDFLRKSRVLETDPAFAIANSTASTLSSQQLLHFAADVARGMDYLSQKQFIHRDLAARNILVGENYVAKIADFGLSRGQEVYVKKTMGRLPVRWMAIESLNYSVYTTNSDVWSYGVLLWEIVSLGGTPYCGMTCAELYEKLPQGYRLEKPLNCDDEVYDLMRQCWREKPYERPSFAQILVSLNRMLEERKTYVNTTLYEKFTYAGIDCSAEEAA

| Structure (SMILES) | IC50 (EPHB4) | IC50 (AKT) | IC50 (Kdr) | IC50 (Tek) | IC50 (Lck) | IC50 (EGFR) | IC50 (c-Met) | IC50 (Itk) | IC50 (IGFR-1) | IC50 (Zap-70) |
| --- | --- | --- | --- | --- | --- | --- | --- | --- | --- | --- |
| COc1ccc(Nc2ncnc(N(CC(=O)OC(C)(C)C)c3ccc4c(c3)OCO4)n2)cc1OC [Compound 310] | > 9.35 µM | > 9.35 µM | 7.27 to 9.35 µM | > 9.35 µM | 0.831 to 4.98 µM | 0.831 to 4.98 µM | > 9.35 µM | > 9.35 µM | 0.831 to 4.98 µM | > 9.35 µM |
| COc1cc(OC)cc(-c2nnc(Nc3ncnc(Nc4cc(OC)c(OC)c(OC)c4)n3)[nH]2)c1 [Compound 312] | > 9.37 µM | > 9.37 µM | > 9.37 µM | > 9.37 µM | > 9.37 µM | > 9.37 µM | > 9.37 µM | > 9.37 µM | > 9.37 µM | > 9.37 µM |
| COCCOc1ccc(Nc2ncnc(Nc3ccc(C)c(F)c3)n2)cc1OCCOC [Compound 322] | > 10.1 µM | > 10.1 µM | 0.902 to 5.41 µM | > 10.1 µM | > 10.1 µM | > 10.1 µM | > 10.1 µM | > 10.1 µM | > 10.1 µM | > 10.1 µM |
| COc1cc(Nc2ncnc(-c3cccc(Cl)c3)n2)cc(OC)c1OC [Compound 220] | > 12.1 µM | > 12.1 µM | > 12.1 µM | > 12.1 µM | > 12.1 µM | > 12.1 µM | > 12.1 µM | > 12.1 µM | > 12.1 µM | > 12.1 µM |
| COc1cc(Nc2ncnc(N(Cc3ccccc3)c3nc4ccccc4[nH]3)n2)cc(OC)c1OC [Compound 373] | > 9.31 µM | > 9.31 µM | 0.827 to 4.96 µM | 0.827 to 4.96 µM | > 9.31 µM | 4.96 to 7.24 µM | > 9.31 µM | > 9.31 µM | > 9.31 µM | > 9.31 µM |
| COc1cc(Nc2ncnc(Nc3cccc(Oc4ccccc4)c3)n2)cc(OC)c1OC [Compound 105] | > 10.1 µM | > 10.1 µM | 0.898 to 5.39 µM | > 10.1 µM | > 10.1 µM | 0.898 to 5.39 µM | 0.898 to 5.39 µM | > 10.1 µM | > 10.1 µM | > 10.1 µM |
| COc1cc(Nc2ncnc(-n3c(Nc4ccc(Cl)cc4)nc4ccccc43)n2)cc(OC)c1OC [Compound 375] | > 8.93 µM | > 8.93 µM | 0.794 to 4.76 µM | > 8.93 µM | 4.76 to 6.95 µM | > 8.93 µM | > 8.93 µM | > 8.93 µM | > 8.93 µM | > 8.93 µM |
| c1ccc(-c2ncnc(Nc3ccc(OCCCN4CCOCC4)cc3)n2)cc1 [Compound 154] | 8.94 to 11.5 µM | > 11.5 µM | 1.02 to 6.13 µM | > 11.5 µM | > 11.5 µM | > 11.5 µM | > 11.5 µM | > 11.5 µM | 1.02 to 6.13 µM | > 11.5 µM |
